Experimental data as given in article PMC7321560 (2020).

Legend:
[1] = tested on: split dopamine aptamer (aptamer1 + aptamer2) (DNA, aptamer) TTCGCAGGTGTGGAGTGACGTCG/CGACGCCAGTTTGAAGGTTCG; experiment: organic electrochemical transistor gate potential shift; details: 10 mM Tris; 0.5 μM aptamer2; highest concentration 10 μM; shift under 15 mV or reversed
[2] = tested on: split dopamine aptamer (aptamer1 + aptamer2) (DNA, aptamer) TTCGCAGGTGTGGAGTGACGTCG/CGACGCCAGTTTGAAGGTTCG; experiment: square wave voltammetry (amperometric aptasensor); details: 10 mM Tris; 0.5 μM aptamer2; highest concentration 50 μM
[3] = tested on: split dopamine aptamer (aptamer1 + aptamer2) (DNA, aptamer) TTCGCAGGTGTGGAGTGACGTCG/CGACGCCAGTTTGAAGGTTCG; experiment: square wave voltammetry, Langmuir fit (amperometric aptasensor); details: 10 mM Tris; 0.5 μM aptamer2; aptamer1 on gold; apparent (transducer-dependent)
[4] = tested on: split dopamine aptamer (aptamer1 + aptamer2) (DNA, aptamer) TTCGCAGGTGTGGAGTGACGTCG/CGACGCCAGTTTGAAGGTTCG; experiment: organic electrochemical transistor gate potential shift, Langmuir fit; details: 10 mM Tris; 0.5 μM aptamer2; aptamer1 on gold gate; apparent (transducer-dependent)

| SMILES | binding [1] | binding [2] | KD [3] | KD [4] |
| --- | --- | --- | --- | --- |
| NCCCC(=O)O | no | no | – | – |
| NCCc1ccc(O)c(O)c1 | – | – | 5000 nM | 0.007 nM |
| N[C@@H](CCC(=O)O)C(=O)O | no | no | – | – |
| O=C1O[C@H]([C@@H](O)CO)C(O)=C1O | no | no | – | – |
| O=c1[nH]c(=O)c2[nH]c(=O)[nH]c2[nH]1 | no | no | – | – |
